The source of these data is US20220008425A1, “Pharmaceutical Composition for Treating B-Cell Lymphoma” (FUNDAN UNIVERSITY SHANGHAI CANER CENTER, priority 2018, published 2022).

One series relates to NU-DUL-1-RCHO cells. To be noted: 48 hours; for cytotoxicity (induction of cell death), inhibitor used alone: inhibitor alone at increasing concentrations; for reversal of resistance to CHO (cytotoxicity of CHO), inhibitor co-treated with CHO: inhibitor at increasing concentrations with CHO. On the procedure:
(§1) Further, we constructed LY8 and NU-DUL-1 cells resistant to chemotherapeutic drugs. Briefly, LY8-ORI and NU-DUL-1-ORI cells were treated with doxorubicin (Selleck Chemicals, Houston, Tex.) and vincristine (Selleck Chemicals, Houston, Tex.) at a clinical ratio of 50:1.4 by increasing the concentration. […] These cells were then treated with 2 μg/mL of 4-hydroperoxycyclophosphamide (4-HC) (Santa Cruz Biotechnology, Inc., Santa Cruz, Calif.) every 21 days for 3 cycles. The obtained CHO-resistant cells are referred to as LY8-CHO and NU-DUL-1-CHO, respectively. CHO-resistant cells were treated with doxorubicin, vincristine, and 4-HC every 22 days to maintain drug tolerance to CHO. […] To maintain RCHO resistance, LY8-RCHO cells and NU-DUL-1-RCHO cells were treated with 32 μg/mL of rituximab containing 20% (v/v) of NHS every 22 days, followed by treatment with doxorubicin, vincristine, and 4-HC. After 48 hours of treatment with doxorubicin, vincristine and 4-HC, drug resistance to CHO and RCHO was determined by a series of CCK-8 assays.
(§2) Cells were seeded in a 96-well plate at a density of 1×10^4/100 μL/well. Cells were pretreated with IPI-145, abemaciclib, AZD4547, PF-573228, R788, or saracatinib at increasing concentrations with or without CHO for 48 hours prior to performing CytoTox-Glo™ cytotoxicity assay. We performed cytotoxicity assay by using a CytoTox-Glo™ cytotoxicity assay kit (Promega Inc., Madison, Wis.) according to their instructions. Briefly, 50 μL of CytoTox-Glo™ cytotoxicity assay reagent was added to all wells, mixed by orbital shaking, and then incubated for 15 minutes at room temperature. Luminescence of experimental dead cells was detected with a Synergy HT microplate reader (BioTek, Biotek Winooski, Minn.), wherein 50 μL of lysate was added to all wells, mixed and incubated for 15 minutes at room temperature prior to detection of total luminescence. Cytotoxicity was calculated according to the following formula: Cytotoxicity (%)=Experimental dead cell luminescence/Total luminescence×100%.

The test system of series [1] is LY8-RCHO cells. The note with it: 48 hours; for cytotoxicity (induction of cell death), inhibitor used alone: inhibitor alone at increasing concentrations; for reversal of resistance to CHO (cytotoxicity of CHO), inhibitor co-treated with CHO: inhibitor at increasing concentrations with CHO. On the procedure: as §1, §2
In a further series the test system is LY8-RCHO-Luc cells. The experiment in a line: Transplantation model, bioluminescence tumor growth and survival. The note with it: SCID mice bearing LY8-RCHO-Luc cells. It is filed as in vivo. From the text: Construction of a transplantation model: we transduced LY8-RCHO cells and NU-DUL-1-RCHO cells with lentiviruses overexpressing the firefly luciferase gene to generate stable cells expressing firefly luciferase, referred to as LY8-RCHO-Luc cells and NU-DUL-1-RCHO-Luc cells, respectively. 8-week-old female SCID mice were purchased from SLAC (Shanghai laboratory animal center). The LY8-RCHO-Luc cells and NU-DUL-1-RCHO-Luc cells were resuspended in PBS prior to intraperitoneal injection of 1.5×10^7 cells per mouse. After intraperitoneal injection of the LY8-RCHO-Luc cells, mice were randomized into 6 groups (7 mice in every group) and given saline, R-CHOP, duvelisib, abemaciclib, R-CHOP+duvelisib, and R-CHOP+abemaciclib, respectively. Mice inoculated with the NU-DUL-1-RCHO-Luc cells were randomly divided into 6 groups (7 mice in every group), and were given saline, R-CHOP, duvelisib, AZD4547, R-CHOP+duvelisib, and R-CHOP+AZD4547, respectively. The drug dosing method based on one course of clinical use is shown in Table 1; the R-CHOP regimen was clinically used to treat DLBCL, while duvelisib, abemaciclib, and AZD4547 were tested in clinical trials (associated NCT numbers are NCT02576275, NCT01739309, and […], respectively). Tumor growth was monitored by bioluminescence at day 50 and day 90 after inoculation. For in vivo luminescence imaging, D-luciferin (Promega, Madison, Wis.) was intraperitoneally injected into mice (150 mg/kg). After 10 minutes, the mice were anesthetized by intraperitoneal injection of pentobarbital (50 mg/kg) and then their bioluminescence intensity was examined by using an In Vivo MS FX PRO system (Bruker Corporation, Billerica, Mass.). Luminescence images were captured with an exposure time of 30 seconds and the signal intensity of the tumor was measured by using Bruker MI software. The survival time of each mouse was recorded. Surviving mice were euthanized and dissected 120 days after inoculation and no intraperitoneal tumors were found. Tumor tissue was collected from moribund mice and fixed with 4% formalin. All animal experiments were performed in strict accordance with the experiment protocol approved by the animal ethics committee of Shanghai school of medicine of Fudan university.

Series [2] concerns AKT phosphorylation, SOX2, CDK6 and CSC-associated molecules in LY8-RCHO cells. Description: Immunoblot analysis. It is filed as cell-based, human.
Series [3] deals with LY8-RCHO cells. The experiment in a line: EdU cell proliferation assay. It is filed as cell-based, human. To be noted: 1 μM. On the procedure: RCHO-resistant DLBCL cells were pretreated with duvelisib, abemaciclib, or AZD4547 at a concentration of 1 μM for 48 or 120 hours prior to EdU assay. For 120 hours of the study, the medium was replaced with a fresh medium containing 1 μM of inhibitor at 48 hours. EdU cell proliferation assay was performed by using a cell-light EdU Apollo643 in vitro flow cytometry kit (RiboBio Inc., Guangzhou, China) according to its instructions. Next, we assayed EdU staining positive cells on a Cytomics FC500 MPL flow cytometer (Beckman Coulter, Brea, Calif.).

For series [4], the system named is LY8-RCHO cells. Description: Aldefluor analysis (ALDH1+ cells). The series is classed as cell-based, human. On the procedure: ALDH1 is a selectable marker for a variety of normal and cancer stem cells, including hematopoietic stem cells. Therefore, we assessed the number of cancer stem cells in hematopoietic malignancies by detecting ALDH1 positive cells. As previously described, we used an ALDEFLUOR™ kit (StemCell Technologies, Vancouver, BC, CA) to detect populations with high ALDH1 activity. Briefly, 1×10^6 cells were suspended in 1 mL of assay buffer containing 1 μM of BAAA, a substrate of […]. Suspended cells were then equally divided into two samples, one as a negative control and the other as a test sample. To form the negative control, […] of DEAB, a specific ALDH inhibitor, was added to one equally-divided sample. Cells were then incubated at 37° C. for 30 minutes prior to flow cytometry analysis.

Series [5] relates to LY8-RCHO cells. The experiment in a line: CDC assay (rituximab-mediated complement-dependent cytotoxicity). It is filed as cell-based, human. To be noted: pre-treated with inhibitor 24 hours, then rituximab and 20% NHS 2 hours. On the procedure:
We constructed LY8 cells and NU-DUL-1 cells that are resistant to rituximab-mediated complement-dependent cytotoxicity (CDC). Briefly, original LY8 (LY8-ORI) cells and original NU-DUL-1 (NU-DUL-1-ORI) cells were treated with rituximab containing 20% (v/v) of NHS (Roche, Basel, Switzerland) with a concentration of gradually increasing from 4 μg/mL to 32 μg/mL to construct drug-resistant cells. […] Cytolysis induced by CDC was evaluated by detection of positive cells stained with propidium iodide (PI) through fluorescence activated cell sorting (FACS).

Series [6] concerns CD20 and mCRPs (CD46, CD55, CD59) in RCHO-resistant NU-DUL-1 cells. Description: FACS analysis of membrane expression of CD46, CD55, CD59 and CD20. It is filed as cell-based, human. On the procedure: (§3) After being washed with PBS, cells were incubated with fluorescein-conjugated antibody for 30 minutes, followed by washing and resuspension of cells in PBS. Flow cytometry analysis was performed on a cytomics FC500 MPL instrument (Beckman Coulter, Inc., Brea, Calif.) and FlowJo software (Ashland, Inc., OR) was used for analysis. Cells were then sorted according to their relative fluorescence intensity by using a MoFlo XDP sorter (Beckman Coulter Inc., Brea, Calif.).

Series [7] concerns CD20 and mCRPs (CD46, CD55, CD59) in RCHO-resistant LY8 cells. The description is as above. It is filed as cell-based, human. On the procedure:
as §3

Values joined by “and” are separate entries in the source; they are usually repeats but may differ in a detail not shown here. Equal values may be shown once. “Also recorded” adds a separate entry of the source.

Turning to `COc1cc(Nc2ncc(F)c(Nc3ccc4c(c3)N(COP(=O)(O)O)C(=O)C(C)(C)O4)n2)cc(OC)c1OC` [R788], the “cytotoxicity (induction of cell death), inhibitor used alone” value (“cytotoxicity … inhibitor used alone” for short) in the series on NU-DUL-1-RCHO cells and in the series on LY8-RCHO cells [1] was “negligible effect on direct induction of cell death” throughout. In addition, the “reversal of resistance to CHO (cytotoxicity of CHO), inhibitor co-treated with CHO” value (from here on “reversal … inhibitor co-treated with CHO”) in the series on NU-DUL-1-RCHO cells and with LY8-RCHO cells [1] was “significantly reversed the resistance of RCHO-resistant cells to CHO” each time.

As to `CN1CCN(CCOc2cc(OC3CCOCC3)c3c(Nc4c(Cl)ccc5c4OCO5)ncnc3c2)CC1` [saracatinib], in the series with NU-DUL-1-RCHO cells, the “cytotoxicity … inhibitor used alone” value is reported as “negligible effect on direct induction of cell death” and the “reversal … inhibitor co-treated with CHO” value is listed as “significantly reversed resistance of RCHO-resistant cells to CHO”. For the same molecule, in the series on LY8-RCHO cells [1], the “cytotoxicity … inhibitor used alone” value is “negligible effect on direct induction of cell death” and the “reversal … inhibitor co-treated with CHO” value is “significantly reversed resistance of RCHO-resistant cells to CHO”.

With `CS(=O)(=O)c1cccc(CNc2nc(Nc3ccc4c(c3)CCC(=O)N4)ncc2C(F)(F)F)c1` [PF-573228], in the series with LY8-RCHO cells [1], the “cytotoxicity … inhibitor used alone” value is “negligible effect on direct induction of cell death” and the “reversal … inhibitor co-treated with CHO” value is on record as “significantly reversed resistance of RCHO-resistant cells to CHO”.

Take `CCN1CCN(Cc2ccc(Nc3ncc(F)c(-c4cc(F)c5nc(C)n(C(C)C)c5c4)n3)nc2)CC1` [abemaciclib]: the “day of death of the two mice that died” value in the series with LY8-RCHO-Luc cells (inhibitor combined with R-CHOP, 7 mice per group) is 62 days and 78 days. In addition, the “tumor growth (total photon flux)” value in the series on LY8-RCHO-Luc cells (inhibitor combined with R-CHOP, dosing per Table 1) is recorded as “significantly inhibited tumor growth”; in the series with LY8-RCHO-Luc cells (regimen or inhibitor used alone, vs saline, dosing per Table 1, day 50 and 90), “neither duvelisib nor abemaciclib alone inhibited tumor growth or prolonged the survival rate”. Moreover, the survival result in the series with LY8-RCHO-Luc cells (inhibitor combined with R-CHOP, experiment ended at day 120) is “prolonged the survival rate compared with R-CHOP or an inhibitor alone”; in the series with LY8-RCHO-Luc cells (regimen or inhibitor used alone, vs saline, dosing per Table 1), “neither duvelisib nor abemaciclib alone inhibited tumor growth or prolonged the survival rate”. Also, the “cytotoxicity … inhibitor used alone” value in the series on LY8-RCHO cells [1] is listed as “negligible effect on induction of cell death; also recorded: only negligible cytotoxicity on drug-resistant cells”. Also, the “reversal … inhibitor co-treated with CHO” value with LY8-RCHO cells [1] was “restored sensitivity of RCHO-resistant cells to CHO; also recorded: significantly enhanced cytotoxicity of CHO”. In addition, in [2], the “levels of CSC-associated molecules (OCT4, NANOG, KLF4, c-MYC, CD34, CD133)” value was “had no effect on its levels but resulted in a reduction in C-MYC”. For the same molecule, the “cell proliferation (EdU incorporation)” value in the series with LY8-RCHO cells [3] (48 hours) is “prevented growth of LY8-RCHO cells at both 48 hours and 120 hours”; in the series on LY8-RCHO cells [3] (120 hours), “prevented growth of LY8-RCHO cells at both 48 hours and 120 hours”. In addition, the “proportion of ALDH1+ cells (CSCs)” value in the series with LY8-RCHO cells [4] is “had no effect on ALDH1+ subpopulations in LY8-RCHO cells”. Moreover, the “effect on resistance to R-mediated CDC” value with LY8-RCHO cells [5] is recorded as “failed to reverse resistance to R-mediated CDC”.

`NC1(c2ccc(-c3nc4ccn5c(=O)[nH]nc5c4cc3-c3ccccc3)cc2)CCC1` [MK-2206]: the “membrane expression of CD20” value in series [6] and in series [7] was “significantly reduced” throughout. For the same molecule, the “membrane expression of the other three mCRPs (CD46, CD55, CD59)” value in [6] and in series [7] was “the other three mCRPs did not” each time.
